The record followed here is ChEMBL document CHEMBL4834419 (J Med Chem, 2021).

Holding throughout (assay type): cell-based
Test [1] deals with T1, Retinoic acid receptor RXR-beta (Homo sapiens, UniProt P28702).
T1 sequence (P28702 whole entry): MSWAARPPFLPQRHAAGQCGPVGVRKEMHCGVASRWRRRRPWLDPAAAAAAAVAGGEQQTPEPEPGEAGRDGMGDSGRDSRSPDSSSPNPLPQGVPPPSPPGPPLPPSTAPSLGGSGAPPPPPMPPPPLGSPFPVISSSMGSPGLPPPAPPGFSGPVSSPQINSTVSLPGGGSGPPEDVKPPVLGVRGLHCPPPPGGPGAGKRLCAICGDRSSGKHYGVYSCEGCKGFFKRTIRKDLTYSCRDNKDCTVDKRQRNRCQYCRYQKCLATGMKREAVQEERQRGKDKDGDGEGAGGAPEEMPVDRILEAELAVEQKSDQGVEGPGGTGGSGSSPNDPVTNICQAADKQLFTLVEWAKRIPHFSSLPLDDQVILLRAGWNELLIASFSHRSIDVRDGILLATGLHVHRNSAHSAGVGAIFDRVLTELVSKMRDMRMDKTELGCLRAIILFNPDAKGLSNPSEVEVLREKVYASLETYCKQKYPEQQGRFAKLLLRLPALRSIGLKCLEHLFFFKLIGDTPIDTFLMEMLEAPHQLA
Description: Agonist activity at human RXRbeta transfected in human HEK293T cells co-expressing pFR/pRL-Luc incubated for 14 to 16 hrs by hybrid reporter gene assay. In general terms: A reporter such as luciferase makes a cellular process visible.

The target of test [2] is T2, Retinoic acid receptor RXR-alpha (Homo sapiens, UniProt P19793).
T2 sequence (P19793 whole entry): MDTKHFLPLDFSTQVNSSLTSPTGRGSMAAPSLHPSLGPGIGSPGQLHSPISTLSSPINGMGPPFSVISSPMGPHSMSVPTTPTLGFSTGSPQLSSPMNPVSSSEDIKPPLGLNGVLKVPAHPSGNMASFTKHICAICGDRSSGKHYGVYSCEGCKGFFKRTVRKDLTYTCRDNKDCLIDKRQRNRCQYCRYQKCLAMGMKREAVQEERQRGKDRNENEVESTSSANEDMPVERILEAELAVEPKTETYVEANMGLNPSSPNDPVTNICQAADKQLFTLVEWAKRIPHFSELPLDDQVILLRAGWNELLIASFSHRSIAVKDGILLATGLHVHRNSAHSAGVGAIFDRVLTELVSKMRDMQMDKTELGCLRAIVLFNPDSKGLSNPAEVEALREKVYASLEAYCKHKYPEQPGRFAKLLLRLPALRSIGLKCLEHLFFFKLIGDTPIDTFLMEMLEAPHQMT
The experiment in a line: Agonist activity at human RXRalpha transfected in human HEK293T cells co-expressing pFR/pRL-Luc incubated for 14 to 16 hrs by hybrid reporter gene assay.

For test [3], the target named is T3, Retinoic acid receptor RXR-gamma (Homo sapiens, UniProt P48443).
T3 sequence (P48443 whole entry): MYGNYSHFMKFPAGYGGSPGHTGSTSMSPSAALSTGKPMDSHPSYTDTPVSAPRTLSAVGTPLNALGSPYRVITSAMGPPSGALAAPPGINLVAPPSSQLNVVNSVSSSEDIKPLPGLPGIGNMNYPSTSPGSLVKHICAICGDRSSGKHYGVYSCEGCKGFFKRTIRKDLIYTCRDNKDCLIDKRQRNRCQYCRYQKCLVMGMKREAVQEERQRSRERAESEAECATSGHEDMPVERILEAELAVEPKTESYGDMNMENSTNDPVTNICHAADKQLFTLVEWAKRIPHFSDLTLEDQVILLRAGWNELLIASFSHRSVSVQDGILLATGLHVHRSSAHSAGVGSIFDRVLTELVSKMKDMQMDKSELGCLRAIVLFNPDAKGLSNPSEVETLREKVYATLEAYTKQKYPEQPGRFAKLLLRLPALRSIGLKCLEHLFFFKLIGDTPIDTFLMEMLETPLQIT
Description: Agonist activity at human RXRgamma transfected in human HEK293T cells co-expressing pFR/pRL-Luc incubated for 14 to 16 hrs by hybrid reporter gene assay.

The term EC50 denotes the concentration at which the effect is half-maximal. Low readings indicate an effect from little substance, high ones a need for much substance. As to `O=C(O)CCc1nc(-c2ccc(Cl)c(Cl)c2)c(-c2ccccc2)o1`, the EC50 in test [1] stood at 1.3 µM; in test [2], 0.62 µM; in test [3], 4.5 µM.
For the molecule `Cc1ccccc1-c1nc(CCC(=O)O)oc1-c1ccccc1`, the EC50 stood at 39 µM in test [1], 6.5 µM in test [2] and 25 µM in test [3].
Turning to `CC(C)(C)c1cc(-c2oc(CCC(=O)O)nc2-c2ccccc2)cc(C(C)(C)C)c1`, the EC50 is 0.13 µM in test [1] and 0.5 µM in test [3].
As to `O=C(O)CCCc1nc(-c2ccccc2)c(-c2ccccc2)o1`, the EC50 was 13.5 µM in test [1], 7.9 µM in test [2] and 43 µM in test [3].
As to `O=C(O)CCc1nc(-c2ccccc2)c(-c2cccc(Cl)c2)o1`, it took 0.6 µM to reach a half-maximal effect in test [1] (EC50).
Consider `O=C(O)CCc1cc(-c2cc(Cl)cc(Cl)c2)n(-c2ccccc2)n1`, for which the EC50 in test [3] was 1.6 µM.
In the case of `Cc1ccc(-n2nc(CCC(=O)O)cc2-c2cc(Cl)cc(Cl)c2)cc1`, the EC50 in test [1] stood at 1.4 µM; in test [2], 2.5 µM; in test [3] it was 3 µM.
For `O=C(O)CCc1nc(-c2ccccc2)c(-c2cccc(C(F)(F)F)c2)o1`, the EC50 amounted to 0.08 µM in test [1], 0.07 µM in test [2] and 0.3 µM in test [3].
For the molecule `O=C(O)CCc1nc(-c2ccccc2)c(-c2cc(Cl)ccc2Cl)o1`, the EC50 in test [1] is 1.4 µM; in test [2], 5.8 µM; in test [3] it was over 20 µM.
`Cn1ccc(-n2nc(CCC(=O)O)cc2-c2cc(Cl)cc(Cl)c2)n1`: the EC50 in test [1], in test [2] and in test [3] was over 30 µM throughout.
Regarding `Cc1ccc(-c2nc(CCC(=O)O)oc2-c2ccccc2)cc1`, the EC50 in test [1] is 14.4 µM; in test [3], over 100 µM.
Take `O=C(O)CCCc1cc(-c2cc(Cl)cc(Cl)c2)n(-c2ccc(Cl)cc2)n1`: the results for the EC50 in test [1], in test [2] and in test [3] were 1.1 µM, 1.3 µM and 3 µM, respectively.
With `O=C(O)CCc1nc(-c2ccccc2)c(-c2cc(F)cc(F)c2)o1`, a half-maximal effect in test [1] (EC50) was put at 0.05 µM.
As to `O=C(O)c1nc(-c2ccccc2)c(-c2ccccc2)o1`, the EC50 in test [1], in test [2] and in test [3] was over 50 µM in each case.
For the molecule `O=C(O)CCc1nc(-c2ccc(Cl)cc2)c(-c2ccccc2)o1`, the EC50 in test [1] turned out to be 2.4 µM; in test [2], 1.3 µM; in test [3], 1.4 µM.
With `O=C(O)CCc1nc(-c2ccc(Cl)cc2)c(-c2cc(Cl)cc(Cl)c2)o1`, the EC50 in test [1] was determined as 0.29 µM; in test [2], 0.18 µM; in test [3] it was 0.4 µM.
Turning to `N#Cc1ccc(-n2nc(CCC(=O)O)cc2-c2cc(Cl)cc(Cl)c2)cc1`, the EC50 is 2 µM in test [1], 7.7 µM in test [2] and 6 µM in test [3].
As for `O=C(O)CCc1nc(-c2ccccc2)c(-c2ccccc2)o1` [OXAPROZIN], the EC50 turned out to be 25 µM in test [1] and 40.1 µM in test [3].
Consider `Cc1ccccc1-c1oc(CCC(=O)O)nc1-c1ccccc1`, for which the EC50 in test [2] is 16.9 µM; in test [3] it was over 30 µM.
`O=C(O)CCc1nc(-c2ccccc2)c(-c2cccc(Cl)c2Cl)o1`: the EC50 in test [2] worked out at 1.2 µM; in test [3] it was 3.2 µM.
`Cc1cc(C)cc(-c2oc(CCC(=O)O)nc2-c2ccccc2)c1`: the EC50 in test [1] was determined as 0.9 µM; in test [2], 0.3 µM.
Take `O=C(O)CCc1nc(-c2cc(Cl)cc(Cl)c2)c(-c2ccccc2)o1`: the half-maximal effective concentration (EC50) amounted to 3.4 µM in test [1] and 2.8 µM in test [3].
Take `Cc1cccc(-c2nc(CCC(=O)O)oc2-c2ccccc2)c1`: the EC50 in test [1] is 4.8 µM.
Consider `O=C(O)CCc1cc(-c2cc(C(F)(F)F)cc(C(F)(F)F)c2)n(-c2ccc(Cl)cc2)n1`, for which the EC50 in test [1] came out at 0.27 µM; in test [3], 0.46 µM.
In the case of `O=C(O)CCc1nc(-c2ccccc2)c(-c2ccc(Cl)cc2)o1`, the EC50 in test [3] came out at 19 µM.
Regarding `O=C(O)CCc1nc(-c2cc(Cl)cc(Cl)c2)c(-c2cc(Cl)cc(Cl)c2)o1`, the EC50 in test [1] came out at 1.5 µM; in test [2], 1.03 µM.
